According to patent US11001829B2, “Functional screening with optimized functional CRISPR-Cas systems” (The Broad Institute, Inc., priority 2014, dated 2021):

Columns and labels:
[1] = tested on: Factor VII; conditions: LNP siRNA systems containing the lipid; cited from earlier work
[2] = tested on: A375 melanoma cell line (BRAF V600E); conditions: cited from earlier work
[3] = tested on: DNA; assay: indel formation by double nicking with sgRNA pairs; assay type: cell-based; conditions: substitution of Cas9n in a given sgRNA pair
From the text: Aspects of the invention relate to the expression of the gene product being decreased or a template polynucleotide being further introduced into the DNA molecule encoding the gene product or an intervening sequence being excised precisely by allowing the two 5′ overhangs to reanneal and ligate or the activity or function of the gene product being altered or the expression of the gene product being increased. In an embodiment of the invention, the gene product is a protein. Only sgRNA pairs creating 5′ overhangs with less than 8 bp overlap between the guide sequences (offset greater than −8 bp) were able to mediate detectable indel formation. […] Nonetheless, a pair of sgRNAs that will generate a 5′ overhang with Cas9n should in principle generate the corresponding 3′ overhang instead, and double nicking. […] Accordingly, in some embodiments, a recombination template is also provided. A recombination template may be a component of another vector as described herein, contained in a separate vector, or provided as a separate polynucleotide. In some embodiments, a recombination template is designed to serve as a template in homologous recombination, such as within or near a target sequence nicked or cleaved by a CRISPR enzyme as a part of a CRISPR complex. […]

[4] = tested on: MS2 RNA aptamer; conditions: cited from earlier work
[5] = tested on: CXCR4, CACNAC1A; assay: repression by non-coding Alu loops in the sgRNA with dCas9, HEK293FT, qPCR; assay type: cell-based, human; conditions: in complex with dCas9
Procedure: The non-coding Alu RNA has previously been described as a transacting repressor interfering with RNA polymerase II in mammalian cells. In addition, a minimal loop required for repression has been identified (sciencedirect.com/science/article/pii/S1097276508000026). Applicants designed guides with different sites of incorporation of the truncated Alu loop (and in combination with PP7 loops). Sequences for these sgRNA backbones are listed below: […]
A total plasmid mass of 0.3 μg/well was transfected using 0.6 μL/well Lipofectamine 2000 (Life Technologies) according to the manufacturer's instructions. […] Relative RNA expression levels were quantified by reverse transcription and quantitative PCR (qPCR) using TaqMan qPCR probes (Life Technologies) and Fast Advanced Master Mix (Life Technologies). qPCR was carried out in 5 μL multiplexed reactions and 384-well format using the LightCycler 480 Instrument II. Data was analyzed by the ΔΔCt method: target Ct values (FAM dye) were normalized to GAPDH Ct values (VIC dye), and fold changes in target gene expression were determined by comparing to GFP-transfected experimental controls.

[6] = tested on: Neurog2; assay: Neurog2 upregulation in Neuro-2a cells, qRT-PCR; assay type: cell-based
Procedure: 120,000 cells were plated in each well of a 24-well plate 18-20 h before transfection. Cells were transfected with Lipofectamine transfection reagent (Life Technologies) according to the manufacturer's instructions.
RNA was extracted using the RNeasy kit (Qiagen) according to manufacturer's instructions and […] of RNA per sample was reverse-transcribed using qScript (Quanta Biosystems). Relative mRNA levels were measured by reverse transcription and quantitative PCR (qRT-PCR) using TaqMan probes specific for the targeted gene as well as GAPDH as an endogenous control (Life Technologies). ddCt analysis was used to obtain fold-changes relative to negative controls transfected with GFP only.
A minimal hairpin aptamer capable of binding to the bacteriophage coat protein MS2, which is known to be capable of binding MS2 through strong sequence- and structure-specific interactions in mammalian cells^18,19, to incorporate into tetraloop and stem-loop 2 (FIG. 27b) was chosen. Tests were performed to evaluate whether MS2-mediated recruitment of VP64 to the tetraloop and stem-loop 2 could mediate transcriptional up-regulation more efficiently than a dCas9-VP64 fusion alone. Aptamer-mediated recruitment of MS2-VP64 to either tetraloop (sgRNA 1.1) or stem-loop 2 (sgRNA 1.2) mediated 3- and 5-fold higher levels of Neurog2 up-regulation than a dCas9-VP64 fusion (sgRNA 1.0), respectively.

[7] = tested on: human ASCL1; assay: ASCL1 activation in HEK293FT cells, qPCR; assay type: cell-based
Procedure: (§1) Human HEK293FT cells were maintained in high-glucose DMEM with GlutaMax and sodium pyruvate (Life Technologies) supplemented with 10% heat-inactivated characterized HyClone fetal bovine serum (Thermo Scientific) and 1% penicillin/streptomycin (Life Technologies). Cells were passaged daily at a ratio 1 to 2 or 1 to 2.5. For MS2/dCas9 activator experiments, 20,000 HEK293FT cells were plated in 100 μL of culture medium in poly-d-lysine coated 96-well plates (BD biosciences). […]
(§2) Total plasmid mass per well was 0.3 micrograms. […] Gene expression levels were quantified by using Taqman qPCR probes (Life technologies) and Fast Advanced Master Mix (Life Technologies). ASCL1 and MYOD1 expression levels were calculated relative to GAPDH expression level. Fold gene expression levels were determined by comparison to samples transfected with GFP plasmid only. […]
(§3) A total plasmid mass of 0.3 ug/well was transfected using 1.5 uL/well Lipofectamine 2000 (Life Technologies) according to the manufacturer's instructions. […] Relative RNA expression levels were quantified by reverse transcription and quantitative PCR (qPCR) using Taqman qPCR probes (Life technologies) and Fast Advanced Master Mix (Life Technologies). qPCR was carried out in 5 uL multiplexed reactions and 384-well format using the LightCycler 480 Instrument II. […]

[8] = tested on: human MYOD1; assay: MYOD1 activation in HEK293FT cells, qPCR; assay type: cell-based
Procedure: as §1, §2, §3

1,2-dilinoleyloxy-keto-N,N-dimethyl-3-aminopropane [DLinKDMA]
gene silencing potency, rank order [1]: DLinKC2-DMA>DLinKDMA>DLinDMA>>DLinDAP

CCCCC/C=C\C/C=C\CCCCCCCC(=O)OCC(CN(C)C)OC(=O)CCCCCCC/C=C\C/C=C\CCCCC (centres unmarked) [DLinDAP, 1,2-dilineoyl-3-dimethylammonium-propane]
gene silencing potency, rank order [1]: DLinKC2-DMA>DLinKDMA>DLinDMA>>DLinDAP

CCCCC/C=C\C/C=C\CCCCCCCCOCC(CN(C)C)OCCCCCCCC/C=C\C/C=C\CCCCC (centres unmarked) [DLinDMA, 1,2-dilinoleyloxy-3-N,N-dimethylaminopropane]
gene silencing potency, rank order [1]: DLinKC2-DMA>DLinKDMA>DLinDMA>>DLinDAP

CCCCC/C=C\C/C=C\CCCCCCCCC1(CCCCCCCC/C=C\C/C=C\CCCCC)OCC(CCN(C)C)O1 (centres unmarked) [DLinKC2-DMA, 1,2-dilinoleyl-4-(2-dimethylaminoethyl)-[1,3]-dioxolane]
gene silencing potency, rank order [1]: DLinKC2-DMA>DLinKDMA>DLinDMA>>DLinDAP

CCCS(=O)(=O)Nc1ccc(F)c(C(=O)c2c[nH]c3ncc(Cl)cc23)c1F [PLX4720]
sensitivity of A375 cells, in words [2]: naturally sensitive

H840A: Cas9 with the H840A mutation in the HNH domain
indel formation, in words [3]: no indel formation is observed

N55K mutant of the MS2 bacteriophage coat protein: MS2 variant, N55K mutant
binding affinity, in words [4]: higher binding affinity than wild type MS2

B1: minimal non-coding Alu-loops at the tetraloop and stem-loop 2: sgRNA backbone with truncated Alu loop at tetraloop and stem-loop 2 (nucleic acid)
guide: GTTTTAGAGCTAGAGGCAGGAGAATGGCGTGAACCCGGGAGGTGGCCGAGATCGCTCCAGCCTGGGTGACAGAGCGAGACTCTGTCTCTAGCAAGTTAAAATAAGGCTAGTCCGTTATCAACTTGAGGCAGGAGAATGGCGTGAACCCGGGAGGTGGCCGAGATCGCTCCAGCCTGGGTGACAGAGCGAGACTCTGTCTCAAGTGGCACCGAGTCGGTGCTTTTTTT
repression of target gene expression, in words [5]: able to repress target gene expression in complex with dCas9

B2: sgRNA 2.0: sgRNA scaffold in which the tetraloop and stem-loop 2 sequences have been replaced by an MS2 binding loop (nucleic acid)
guide: NNNNNNNNNNNNNNNNNNNNGUUUUAGAGCUAGGCCAACATGAGGATCACCCATGTCTGCAGGGCCUAGCAAGUUAAAAUAAGGCUA
modifications: /note=“Description of Combined DNA/RNA Molecule Synthetic oligonucleotide”; modified_base (1)..(20) a, c, t, g, unknown or other
levels of Neurog2 up-regulation relative to a dCas9-VP64 fusion (sgRNA 1.0) ([6]; aptamer-mediated recruitment of MS2-VP64, with dCas9): 12 fold
target gene upregulation (Neurog2), in words ([6]; with dCas9-vp64 and MS2-vp64, compared with regular guide and dCas9-vp64): much higher target gene upregulation compared to the previous design
ASCL1 activation, comparison in words [7]: more potent than either of the 3′ MS2 sgRNA architectures
levels of transcription activation relative to sgRNA+2×MS2 ([7]; ASCL1): 14 fold
MYOD1 activation, comparison in words [8]: more potent than either of the 3′ MS2 sgRNA architectures
levels of transcription activation relative to sgRNA+2×MS2 ([8]; MYOD1): 8.5 fold
